Laboratory results published in patent publication US12459922B2 (Gilead Sciences, Inc., priority 2022, dated 2025).

System: endogenous cellular STAT1 (phosphorylated at Tyr701) in NCI-H1373 cells
Test: Phospho-STAT1 (Tyr701) LANCE Ultra TR-FRET Detection Assay
Format: cell-based
Details: Homo sapiens, NCI-H1373, 48 h, phospho-STAT1 (Tyr701) induction, read-out: NH1373 pSTAT1 EC50
Method: Phospho-STAT1 (Tyr701 LANCE Ultra TR-FRET Detection Assay
d. LANCE Ultra phospho-STAT1 (Tyr701) kits are designed for the detection of phosphorylated STAT1 in cell lysates using a simple, homogeneous LANCE Ultra sandwich assay (Cat. #TRF4028M). This assay is intended for assessing compound induction of endogenous levels of cellular STAT1 (phosphorylated at Tyr701) in NCI-H1373 cells. The NCI-H1373 cells are cultured in RPMI 1640 media containing 10% heat inactivated FBS, GlutaMAX, 1% Penicillin-Streptomycin. An Echo acoustic liquid handler is used to transfer 60 nanoliters of compound dilutions using the Echo Qualified, 384-well polypropylene microplate clear flat bottom source plates into a Greiner (#781080) cell culture microplate. NCI-H1373 cells are seeded into these compound-spotted culture plates at 30,000 cells/well in a 60 uL volume in growth media. The plates are incubated in a 5% CO2 humidified incubator at 37° C. for 48 hours. […] After spinning the plate down at 300 rpm for 1 min, the plate is read on an EnVision plate reader set up for Eu3+ Cryptate and fluorescence emission is measured at two different wavelengths (665 nm and 620 nm). The HTRF ratio is then calculated […] for each well to determine the amount of pSTAT1 in the cell lysate, and the data is then normalized to 10 uM GS-1154611 positive and DMSO negative controls.

EC50 | SMILES
0.00921 µM | [2H][C@@](C)(CCCn1ccc2cc(-c3ncc(C(F)(F)F)cn3)c(F)c(F)c2c1=O)Nc1cn[nH]c(=O)c1C(F)(F)F (single isomer, unassigned) [Example 86]
10 µM | [2H][C@](C)(CCCn1ccc2cc(-c3ncc(C(F)(F)F)cn3)c(F)c(F)c2c1=O)Nc1cn[nH]c(=O)c1C(F)(F)F (single isomer, unassigned) [Example 87]
0.0828 µM | C[C@@H](C[C@H](O)Cn1ccc2cc(-c3ncc(C(F)(F)F)cn3)c(F)cc2c1=O)Nc1cn[nH]c(=O)c1C(F)(F)F (single isomer, unassigned) [Example 479]
0.00414 µM | C[C@@H](C[C@@H](O)Cn1ccc2cc(-c3ncc(C(F)(F)F)cn3)c(F)cc2c1=O)Nc1cn[nH]c(=O)c1C(F)(F)F (single isomer, unassigned) [Example 480]
10 µM | C[C@H](Nc1cn[nH]c(=O)c1C(F)(F)F)[C@@H]1C[C@H]1Cn1ccc2cc(-c3ncc(C(F)(F)F)cn3)c(F)cc2c1=O [Example 68, 7-fluoro-2-[[(1R,2R)-2-[(1S)-1-[[6-oxo-5-(trifluoromethyl)-1H-pyridazin-4-yl]amino]ethyl]cyclopropyl]methyl]-6-[5-(trifluoromethyl)pyrimidin-2-yl]isoquinolin-1-one]
0.148 µM | C[C@@H](CCCn1ccc2cc(-c3ncc(N4CC(O)(C(F)(F)F)C4)cn3)c(F)cc2c1=O)Nc1cn[nH]c(=O)c1C(F)(F)F [Example 69, 7-fluoro-6-[5-[3-hydroxy-3-(trifluoromethyl)azetidin-1-yl]pyrimidin-2-yl]-2-[(4S)-4-[[6-oxo-5-(trifluoromethyl)-1H-pyridazin-4-yl]amino]pentyl]isoquinolin-1-one]
0.00585 µM | O=c1[nH]ncc(N2CCC2CCCn2ccc3cc(-c4ncc(C(F)(F)F)cn4)c(F)cc3c2=O)c1C(F)(F)F (stereo not shown) [Example 72, 7-fluoro-2-[3-[1-[6-oxo-5-(trifluoromethyl)-1H-pyridazin-4-yl]azetidin-2-yl]propyl]-6-[5-(trifluoromethyl)pyrimidin-2-yl]isoquinolin-1-one]
0.734 µM | CC(C)(O)[C@@H](CCCn1ccc2cc(-c3ncc(C(F)(F)F)cn3)c(F)cc2c1=O)Nc1cn[nH]c(=O)c1C(F)(F)F [Example 73, 7-fluoro-2-[(4R)-5-hydroxy-5-methyl-4-[[6-oxo-5-(trifluoromethyl)-1H-pyridazin-4-yl]amino]hexyl]-6-[5-(trifluoromethyl)pyrimidin-2-yl]isoquinolin-1-one]
0.0653 µM | C[C@@H](CCCn1ccc2cc(-c3ncc(C(C)(C)O)cn3)c(F)cc2c1=O)Nc1cn[nH]c(=O)c1C(F)(F)F [Example 74, 7-fluoro-6-[5-(1-hydroxy-1-methyl-ethyl)pyrimidin-2-yl]-2-[(4S)-4-[[6-oxo-5-(trifluoromethyl)-1H-pyridazin-4-yl]amino]pentyl]isoquinolin-1-one]

Further lines, the compound ahead of its results:

SMILES | EC50
O=c1[nH]ncc(N[C@H]2CCCC[C@H]2CCn2ccc3cc(-c4ncc(C(F)(F)F)cn4)c(F)cc3c2=O)c1C(F)(F)F (racemic) [Example 436, (rac)-7-fluoro-2-(2-((1S,2S)-2-((6-oxo-5-(trifluoromethyl)-1,6-dihydropyridazin-4-yl)amino)cyclohexyl)ethyl)-6-(5-(trifluoromethyl)pyrimidin-2-yl)isoquinolin-1(2H)-one] | 0.443 µM
O=c1[nH]ncc(N[C@H]2CCC[C@H]2CCn2ccc3cc(-c4ncc(C(F)(F)F)cn4)c(F)cc3c2=O)c1C(F)(F)F (racemic) [Example 437, (rac)-7-fluoro-2-(2-((1S,2S)-2-((6-oxo-5-(trifluoromethyl)-1,6-dihydropyridazin-4-yl)amino)cyclopentyl)ethyl)-6-(5-(trifluoromethyl)pyrimidin-2-yl)isoquinolin-1(2H)-one] | 0.102 µM
Nc1nc(-c2cc3ccn(CC[C@H]4COC[C@@H]4Nc4cn[nH]c(=O)c4C(F)(F)F)c(=O)c3cc2F)ncc1C(F)(F)F (racemic) [Example 441, (rac) 6-(4-amino-5-(trifluoromethyl)pyrimidin-2-yl)-7-fluoro-2-(2-((3R,4R)-4-((6-oxo-5-(trifluoromethyl)-1,6-dihydropyridazin-4-yl)amino)tetrahydrofuran-3-yl)ethyl)isoquinolin-1(2H)-one] | 0.388 µM
C[C@H](CCCn1ccc2cc(-c3ccc(C(F)(F)F)cn3)ccc2c1=O)Nc1cn[nH]c(=O)c1C(F)(F)F (single isomer, unassigned) [Example 2] | 10 µM
C[C@@H](CCCn1ccc2cc(-c3ccc(C(F)(F)F)cn3)ccc2c1=O)Nc1cn[nH]c(=O)c1C(F)(F)F (single isomer, unassigned) [Example 3] | 0.108 µM
O=c1[nH]ncc(N2CC[C@@H]2CCCn2ccc3cc(-c4ncc(C(F)(F)F)cn4)c(F)cc3c2=O)c1C(F)(F)F (single isomer, unassigned) [Example 148] | 0.399 µM
O=c1[nH]ncc(N2CC[C@H]2CCCn2ccc3cc(-c4ncc(C(F)(F)F)cn4)c(F)cc3c2=O)c1C(F)(F)F (single isomer, unassigned) [Example 149] | 0.00398 µM
O=c1[nH]ncc(N2CC[C@@H]2CCCn2cnc3cc(-c4ncc(C(F)(F)F)cn4)c(F)cc3c2=O)c1C(F)(F)F (single isomer, unassigned) [Example 151] | 0.0587 µM
O=c1[nH]ncc(N2CC[C@H]2CCCn2cnc3cc(-c4ncc(C(F)(F)F)cn4)c(F)cc3c2=O)c1C(F)(F)F (single isomer, unassigned) [Example 152] | 0.000508 µM
CC(CCCn1ccc2cc(-c3ccc(C(F)(F)F)cn3)ccc2c1=O)Nc1cn[nH]c(=O)c1C(F)(F)F (stereo not shown) [Example 1, 2-(4-((6-oxo-5-(trifluoromethyl)-1,6-dihydropyridazin-4-yl)amino)pentyl)-6-(5-(trifluoromethyl)pyridin-2-yl)isoquinolin-1(2H)-one] | 0.0978 µM
C[C@@H](CCCn1ccc2cc(-c3ccc(C(F)F)cn3)c(F)c(F)c2c1=O)Nc1cn[nH]c(=O)c1C(F)(F)F [Example 51, (S)-6-(5-(difluoromethyl)pyridin-2-yl)-7,8-difluoro-2-(4-((6-oxo-5-(trifluoromethyl)-1,6-dihydropyridazin-4-yl)amino)pentyl)isoquinolin-1(2H)-one] | 0.0449 µM
C[C@@H](CCCn1cnc2cc(-c3ncc4cc[nH]c4n3)c(F)cc2c1=O)Nc1cn[nH]c(=O)c1C(F)(F)F [Example 62, 6-fluoro-3-[(4S)-4-[[6-oxo-5-(trifluoromethyl)-1H-pyridazin-4-yl]amino]pentyl]-7-(7H-pyrrolo[2,3-d]pyrimidin-2-yl)quinazolin-4-one] | 0.0313 µM
Cc1c[nH]c2nc(-c3cc4ncn(CCC[C@H](C)Nc5cn[nH]c(=O)c5C(F)(F)F)c(=O)c4cc3F)ncc12 [Example 63, 6-fluoro-7-(5-methyl-7H-pyrrolo[2,3-d]pyrimidin-2-yl)-3-[(4S)-4-[[6-oxo-5-(trifluoromethyl)-1H-pyridazin-4-yl]amino]pentyl]quinazolin-4-one] | 0.00715 µM
C[C@@H](CCCn1cnc2cc(-c3ncc4c(F)c[nH]c4n3)c(F)cc2c1=O)Nc1cn[nH]c(=O)c1C(F)(F)F [Example 64, 6-fluoro-7-(5-fluoro-7H-pyrrolo[2,3-d]pyrimidin-2-yl)-3-[(4S)-4-[[6-oxo-5-(trifluoromethyl)-1H-pyridazin-4-yl]amino]pentyl]quinazolin-4-one] | 0.0373 µM
C[C@@H](CCCn1cnc2cc(-c3ncc(C4CC4)c(N)n3)c(F)cc2c1=O)Nc1cn[nH]c(=O)c1C(F)(F)F [Example 65, 7-(4-amino-5-cyclopropyl-pyrimidin-2-yl)-6-fluoro-3-[(4S)-4-[[6-oxo-5-(trifluoromethyl)-1H-pyridazin-4-yl]amino]pentyl]quinazolin-4-one] | 0.0292 µM
COc1cnc(-c2cc3ncn(CCC[C@H](C)Nc4cn[nH]c(=O)c4C(F)(F)F)c(=O)c3cc2F)nc1N [Example 66, 7-(4-amino-5-methoxy-pyrimidin-2-yl)-6-fluoro-3-[(4S)-4-[[6-oxo-5-(trifluoromethyl)-1H-pyridazin-4-yl]amino]pentyl]quinazolin-4-one] | 0.0715 µM
C[C@@H](CCCn1cnc2cc(-c3ncc(F)c(N)n3)c(F)cc2c1=O)Nc1cn[nH]c(=O)c1C(F)(F)F [Example 67, 7-(4-amino-5-fluoro-pyrimidin-2-yl)-6-fluoro-3-[(4S)-4-[[6-oxo-5-(trifluoromethyl)-1H-pyridazin-4-yl]amino]pentyl]quinazolin-4-one] | 0.218 µM
CC[C@@H](CCCn1ccc2cc(-c3ncc(C#N)c(N)n3)c(F)cc2c1=O)Nc1cn[nH]c(=O)c1C(F)(F)F [Example 70, 4-amino-2-[7-fluoro-1-oxo-2-[(4S)-4-[[6-oxo-5-(trifluoromethyl)-1H-pyridazin-4-yl]amino]hexyl]-6-isoquinolyl]pyrimidine-5-carbonitrile] | 0.0221 µM
CC[C@@H](CCCn1ccc2cc(-c3ncc(C(F)(F)F)c(N)n3)c(F)cc2c1=O)Nc1cn[nH]c(=O)c1C(F)(F)F [Example 71, 6-[4-amino-5-(trifluoromethyl)pyrimidin-2-yl]-7-fluoro-2-[(4S)-4-[[6-oxo-5-(trifluoromethyl)-1H-pyridazin-4-yl]amino]hexyl]isoquinolin-1-one] | 0.00594 µM
